Data set [1] concerns SARS-CoV-2 delta virus (NTU92). The experiment in a line: Plaque reduction assay, entry treatment (compound preincubated with the virus). In kind it is cell-based. To be noted: Severe acute respiratory syndrome coronavirus 2, Vero C1008, VeroE6 cells, triplicate, read-out: EC50 against delta SARS-CoV-2 infecting VeroE6 cells.
Data set [2] in a line: Cytotoxicity by acid phosphatase assay. Format: cell-based. Conditions: African green monkey; VeroE6 cells, 3 days incubation. The protocol: Cytotoxicity of the inhibitors was determined by using acid phosphatase assay. Briefly, VeroE6 cells were seeded onto a 96-well culture plate at a concentration of 2 × 10^4 cells per well. Next day, the medium was removed, and each well was washed once with PBS before adding DMEM containing 2% FBS and different concentrations of an inhibitor. Next, DMEM containing 2 μg/mL TPCK-trypsin was added. After 1 h of incubation at 37 °C, the medium was removed, and cells were washed by PBS. Then, DMEM containing 2% FBS and different concentrations of an antiviral was added. After 3 days of incubation at 37 °C, the medium was removed, and each well was washed once with PBS. Next, buffer containing 0.1 M sodium acetate (pH = 5.0), 0.1% Triton X-100, and 5 mM p-nitrophenyl phosphate was added. After the mixture was incubated at 37 °C for 2 h, 1 N NaOH was added to stop the reaction. The absorbance was then determined by an ELISA reader (VERSAmax, Molecular Devices, Sunnyvale, CA) at a wavelength of 405 nm. The percentage of cytotoxicity was calculated using the following formula: cytotoxicity % = [1 – (At/As) × 100]%, where At and As refer to the absorbance of a tested substance and solvent control, respectively. The 50% cytotoxicity concentration (CC50) was defined as the concentration reducing 50% of cell viability. […]

Data set [3] concerns the target RBD:ACE2 interaction (Severe acute respiratory syndrome coronavirus 2, UniProt P0DTC2). The data set can be described thus: RBD:ACE2 interaction inhibition, NanoBiT kit (Promega). Set-up: species or system delta SARS-CoV-2 RBD / human ACE2. Conditions: RBD from delta SARS-CoV-2, triplicate; read-out: IC50 of RBD:ACE2 binding inhibition.
Data set [4] has as its target Furin (Homo sapiens, UniProt P09958). The data set can be described thus: Inhibition of human protease Furin (data not shown). Format: biochemical.
Data set [5] deals with TMPRSS2 (Homo sapiens, UniProt O15393). The data set can be described thus: Inhibition of human protease TMPRSS2 (data not shown). In kind it is biochemical.
Chain of TMPRSS2 (O15393 whole entry): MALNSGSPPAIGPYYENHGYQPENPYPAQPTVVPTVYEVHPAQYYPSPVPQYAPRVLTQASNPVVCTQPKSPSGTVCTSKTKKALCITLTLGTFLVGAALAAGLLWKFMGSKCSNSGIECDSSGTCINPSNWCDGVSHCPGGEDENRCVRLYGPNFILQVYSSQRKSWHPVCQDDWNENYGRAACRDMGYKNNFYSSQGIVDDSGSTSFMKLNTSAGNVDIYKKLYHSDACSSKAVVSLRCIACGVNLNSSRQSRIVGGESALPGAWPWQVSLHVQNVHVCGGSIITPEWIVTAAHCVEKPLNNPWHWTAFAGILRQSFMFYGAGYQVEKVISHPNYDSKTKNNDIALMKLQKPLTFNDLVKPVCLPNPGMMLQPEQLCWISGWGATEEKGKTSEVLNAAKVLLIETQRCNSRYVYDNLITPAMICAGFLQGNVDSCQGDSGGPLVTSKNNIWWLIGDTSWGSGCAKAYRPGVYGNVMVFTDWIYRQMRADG
The target of data set [6] is Cathepsin L (Homo sapiens, UniProt P07711). The data set can be described thus: Inhibition of human protease Cathepsin L (data not shown). In kind it is biochemical.
Chain of Cathepsin L (P07711 114-333): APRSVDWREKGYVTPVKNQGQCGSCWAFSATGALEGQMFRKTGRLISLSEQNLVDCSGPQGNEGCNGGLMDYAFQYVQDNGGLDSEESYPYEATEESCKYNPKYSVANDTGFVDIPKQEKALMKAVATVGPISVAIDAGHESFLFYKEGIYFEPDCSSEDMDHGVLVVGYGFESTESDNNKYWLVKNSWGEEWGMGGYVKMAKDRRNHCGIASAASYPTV
In data set [7] the test system is SARS-CoV-2. In kind it is cell-based.
The subject of data set [8] is SARS-CoV-2. To be noted: VeroE6 host cells; read-out: EC50 of inhibiting SARS-CoV-2 entry into VeroE6 host cells; cited from earlier work.
Data set [9] deals with VeroE6 host cells. Conditions: cited from earlier work.

Here are results for three compounds from paper PMC11740144 (ACS Omega, 2024).

Chain of Furin (P09958 108-794): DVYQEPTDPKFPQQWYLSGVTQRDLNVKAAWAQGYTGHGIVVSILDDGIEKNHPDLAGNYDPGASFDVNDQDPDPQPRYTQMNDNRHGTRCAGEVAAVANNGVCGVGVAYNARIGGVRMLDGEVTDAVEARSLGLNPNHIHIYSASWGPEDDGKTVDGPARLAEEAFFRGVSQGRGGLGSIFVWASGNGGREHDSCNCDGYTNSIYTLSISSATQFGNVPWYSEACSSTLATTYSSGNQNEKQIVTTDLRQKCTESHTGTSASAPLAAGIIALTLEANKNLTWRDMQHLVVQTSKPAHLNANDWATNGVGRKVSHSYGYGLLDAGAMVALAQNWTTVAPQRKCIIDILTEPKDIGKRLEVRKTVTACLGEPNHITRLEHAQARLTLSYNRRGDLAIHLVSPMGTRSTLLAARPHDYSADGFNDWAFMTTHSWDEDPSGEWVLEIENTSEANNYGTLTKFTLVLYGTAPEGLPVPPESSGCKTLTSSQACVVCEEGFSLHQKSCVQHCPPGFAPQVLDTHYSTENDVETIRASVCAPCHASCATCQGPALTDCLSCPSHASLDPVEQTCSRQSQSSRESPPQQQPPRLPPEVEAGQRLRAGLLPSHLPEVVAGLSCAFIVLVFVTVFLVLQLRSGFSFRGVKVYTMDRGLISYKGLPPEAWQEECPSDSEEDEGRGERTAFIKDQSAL

For `O=C(c1ccccc1)[C@H]1[C@@H]2c3ccccc3C=CN2[C@@H](C(=O)c2ccccc2)[C@@H]2c3ccccc3C=CN12` [Compound 50], the EC50 in data set [1] stood at 26.5 ± 6.9 µM. This compound gave a half-maximal cytotoxic concentration (CC50) at 3 days in [2] of more than 100 µM. In data set [3], the IC50 was 32.7 ± 8.9 µM. Moreover, the “inhibition of Furin” value in [4] is reported as “no inhibition”. Besides, the “inhibition of TMPRSS2” value in [5] is given as “no inhibition”. Also, the “inhibition of Cathepsin L” value in [6] was “no inhibition”. Also, the “anti-SARS-CoV-2 activity under the postentry treatment” value in [7] is recorded as “not under the postentry treatment”.

Regarding `O=C(c1ccc(Cl)cc1)[C@H]1[C@@H]2c3ccccc3C=CN2[C@@H](C(=O)c2ccc(Cl)cc2)[C@@H]2c3ccccc3C=CN12` [Compound 96], the EC50 in data set [1] was 17 ± 3.7 µM. In addition, the half-maximal cytotoxic concentration (CC50) at 3 days in data set [2] is more than 100 µM. The IC50 in data set [3] was determined as 10.4 ± 2.1 µM. Further, the “inhibition of Furin” value in [4] is listed as “no inhibition”. Besides, in data set [5], the “inhibition of TMPRSS2” value is “no inhibition”. The “inhibition of Cathepsin L” value in data set [6] is recorded as “no inhibition”. Besides, in [7], the “anti-SARS-CoV-2 activity under the postentry treatment” value is given as “not under the postentry treatment”.

For berbamine hydrochloride, in data set [8], the EC50 is 1.73 µM. Further, the CC50 in data set [9] was 66.9 µM.
